ChEMBL document CHEMBL1201862, “PubChem BioAssay data set” (2004)
The source made the active and inactive calls.

How the values were obtained:
Protein RecA = biological target: T1, Protein RecA (Mycobacterium tuberculosis, UniProt P9WHJ3); assay: Fluorescence Cell-Free Homogeneous Dose Retest to Identify Inhibitors of RecA-Intein Splicing Activity. [Related pubchem assays (depositor defined):AID2097, AID2223, AID489010, AID492950]; assay type: functional
T1 sequence (P9WHJ3 whole entry): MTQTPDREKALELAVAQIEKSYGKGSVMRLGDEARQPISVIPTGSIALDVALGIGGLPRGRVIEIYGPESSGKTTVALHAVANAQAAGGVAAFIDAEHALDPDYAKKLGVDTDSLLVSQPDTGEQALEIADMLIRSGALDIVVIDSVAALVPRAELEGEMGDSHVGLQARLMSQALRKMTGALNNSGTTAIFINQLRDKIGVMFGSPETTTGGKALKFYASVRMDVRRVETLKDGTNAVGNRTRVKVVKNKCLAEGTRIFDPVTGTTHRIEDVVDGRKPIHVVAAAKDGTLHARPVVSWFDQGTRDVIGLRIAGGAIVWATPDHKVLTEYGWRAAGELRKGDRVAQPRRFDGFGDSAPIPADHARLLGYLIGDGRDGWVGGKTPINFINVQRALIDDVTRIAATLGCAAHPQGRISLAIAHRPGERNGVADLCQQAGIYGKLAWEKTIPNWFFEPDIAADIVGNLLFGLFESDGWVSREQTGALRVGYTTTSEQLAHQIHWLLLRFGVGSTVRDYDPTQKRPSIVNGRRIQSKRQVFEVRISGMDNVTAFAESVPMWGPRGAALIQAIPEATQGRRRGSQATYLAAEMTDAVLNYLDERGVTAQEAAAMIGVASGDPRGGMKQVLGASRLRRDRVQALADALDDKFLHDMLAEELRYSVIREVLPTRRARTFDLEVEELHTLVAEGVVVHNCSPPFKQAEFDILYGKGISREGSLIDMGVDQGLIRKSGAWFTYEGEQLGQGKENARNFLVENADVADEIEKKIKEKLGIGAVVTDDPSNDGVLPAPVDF

[1] = biological target: T2, Replicative DNA helicase DnaB (Mycobacterium tuberculosis, UniProt P9WMR3); assay: DnaB intein splicing inhibitors, dose response, biochemical, cell-free fluorescence (AID 449749); assay type: functional
T2 sequence (P9WMR3 whole entry): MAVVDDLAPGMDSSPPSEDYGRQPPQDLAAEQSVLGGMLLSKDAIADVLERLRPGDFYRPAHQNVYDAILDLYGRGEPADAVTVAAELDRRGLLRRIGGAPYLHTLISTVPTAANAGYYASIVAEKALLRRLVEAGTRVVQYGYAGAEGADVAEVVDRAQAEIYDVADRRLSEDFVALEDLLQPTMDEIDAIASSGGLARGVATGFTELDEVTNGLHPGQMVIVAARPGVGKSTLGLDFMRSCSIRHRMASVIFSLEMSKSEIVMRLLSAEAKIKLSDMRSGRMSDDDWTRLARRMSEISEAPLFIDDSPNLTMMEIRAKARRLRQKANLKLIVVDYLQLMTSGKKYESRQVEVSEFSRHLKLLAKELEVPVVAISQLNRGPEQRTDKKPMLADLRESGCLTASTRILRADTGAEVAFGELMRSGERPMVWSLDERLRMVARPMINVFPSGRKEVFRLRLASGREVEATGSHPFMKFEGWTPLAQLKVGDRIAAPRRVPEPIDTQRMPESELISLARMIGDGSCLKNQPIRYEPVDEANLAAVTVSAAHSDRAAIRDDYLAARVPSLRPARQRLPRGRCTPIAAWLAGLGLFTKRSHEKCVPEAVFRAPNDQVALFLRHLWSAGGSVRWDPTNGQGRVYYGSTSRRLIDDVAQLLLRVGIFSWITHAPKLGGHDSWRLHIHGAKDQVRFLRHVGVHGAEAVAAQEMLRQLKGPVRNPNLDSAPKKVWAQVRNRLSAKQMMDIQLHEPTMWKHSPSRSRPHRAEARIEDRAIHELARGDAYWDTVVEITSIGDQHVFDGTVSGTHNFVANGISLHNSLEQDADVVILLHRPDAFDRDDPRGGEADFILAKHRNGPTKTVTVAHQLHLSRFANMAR

[2] = biological target: G-protein coupled receptor 35 (Homo sapiens, UniProt Q9HC97); assay: GPR35 antagonists blocking zaprinast-driven arrestin recruitment, primary screen, imaging, U2OS, beta-arrestin-GFP, zaprinast agonist (AID 2058); assay type: functional;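 note: antagonist potency meaning inhibition of agonist-induced arrestin redistribution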
[3] = biological target: Melanin-concentrating hormone receptor 1 (Homo sapiens, UniProt Q99705); assay: Late-stage fluorescence-based counterscreen for antagonists of the G-protein coupled receptor 7 (GPR7): cell-based dose response assay to identify antagonists of the melanin-concentrating hormone receptor 1 (MCHR1). [Related pubchem assays (depositor defined):AID1861, AID1880, AID1952, AID2148, AID2251, AID2257, AID485339]; assay type: functional;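 note: stimulated with 30 nM MCH peptide agonist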
[4] = biological target: Scavenger receptor class B member 1 (Mus musculus, UniProt Q61009); assay: inhibitors of SR-BI mediated HDL lipid uptake, dose response, ldlA[mSR-BI] cells, fluorescence, cherry pick (AID 493194); assay type: functional, cell-based;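 note: cellular uptake of fluorescent DiI-labeled HDL measured as cell fluorescence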
Trypanosoma cruzi = assay: growth inhibition of intracellular Trypanosoma cruzi, dose response, cell-based, plate reader, dry powder, set 3 (AID 493197); assay type: functional
[5] = biological target: T3, Eukaryotic translation initiation factor 2-alpha kinase 3 (Homo sapiens, UniProt Q9NZJ5); assay: Dose response cell-based high-throughput screening assay to measure PERK inhibition. [Related pubchem assays: 1416 ]; assay type: functional
[6] = biological target: T3, Eukaryotic translation initiation factor 2-alpha kinase 3; assay: Counterscreen assay for PERK inhibitors: Dose response cell-based high throughput screening assay to measure inhibition of PERK at 6 hours. [Related pubchem assays: 1522, 1416 ]; assay type: functional

T3 sequence (Q9NZJ5 whole entry): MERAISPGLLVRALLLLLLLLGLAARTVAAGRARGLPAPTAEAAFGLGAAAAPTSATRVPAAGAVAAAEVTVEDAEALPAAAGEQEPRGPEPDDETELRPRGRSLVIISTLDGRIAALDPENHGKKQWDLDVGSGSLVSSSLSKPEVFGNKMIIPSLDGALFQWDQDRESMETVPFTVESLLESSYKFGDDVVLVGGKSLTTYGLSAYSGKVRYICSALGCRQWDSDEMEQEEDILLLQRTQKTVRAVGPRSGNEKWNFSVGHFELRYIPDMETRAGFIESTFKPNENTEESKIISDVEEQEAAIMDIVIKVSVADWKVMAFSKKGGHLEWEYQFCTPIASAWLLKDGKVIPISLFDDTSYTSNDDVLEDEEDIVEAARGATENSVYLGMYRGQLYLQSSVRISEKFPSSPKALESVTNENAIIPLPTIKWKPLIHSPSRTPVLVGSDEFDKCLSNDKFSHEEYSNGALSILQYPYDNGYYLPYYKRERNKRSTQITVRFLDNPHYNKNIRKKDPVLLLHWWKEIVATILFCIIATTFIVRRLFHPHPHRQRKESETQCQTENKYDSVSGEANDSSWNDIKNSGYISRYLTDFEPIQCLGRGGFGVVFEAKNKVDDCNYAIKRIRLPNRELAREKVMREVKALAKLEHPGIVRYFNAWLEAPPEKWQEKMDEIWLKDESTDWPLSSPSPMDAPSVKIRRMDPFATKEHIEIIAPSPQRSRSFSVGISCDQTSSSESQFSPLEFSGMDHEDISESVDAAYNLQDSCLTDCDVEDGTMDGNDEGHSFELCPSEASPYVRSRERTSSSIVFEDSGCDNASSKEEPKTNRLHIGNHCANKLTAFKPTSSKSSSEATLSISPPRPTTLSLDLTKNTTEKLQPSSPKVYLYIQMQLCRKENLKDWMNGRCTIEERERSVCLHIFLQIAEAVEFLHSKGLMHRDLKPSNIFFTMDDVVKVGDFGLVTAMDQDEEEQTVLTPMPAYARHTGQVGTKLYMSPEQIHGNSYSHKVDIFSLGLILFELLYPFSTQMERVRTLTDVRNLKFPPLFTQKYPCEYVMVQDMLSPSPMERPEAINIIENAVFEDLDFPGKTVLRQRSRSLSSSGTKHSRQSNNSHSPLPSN
G-protein coupled receptor 35, sequence (Q9HC97 whole entry): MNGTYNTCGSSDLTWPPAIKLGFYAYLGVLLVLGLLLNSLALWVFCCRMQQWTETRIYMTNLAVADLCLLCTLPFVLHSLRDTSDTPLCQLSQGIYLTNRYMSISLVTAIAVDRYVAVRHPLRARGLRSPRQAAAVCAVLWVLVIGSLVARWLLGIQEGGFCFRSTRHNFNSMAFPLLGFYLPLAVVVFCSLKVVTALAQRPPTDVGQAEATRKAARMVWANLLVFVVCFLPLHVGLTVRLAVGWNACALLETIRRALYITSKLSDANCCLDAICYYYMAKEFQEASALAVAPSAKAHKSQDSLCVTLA
Melanin-concentrating hormone receptor 1, sequence (Q99705 whole entry): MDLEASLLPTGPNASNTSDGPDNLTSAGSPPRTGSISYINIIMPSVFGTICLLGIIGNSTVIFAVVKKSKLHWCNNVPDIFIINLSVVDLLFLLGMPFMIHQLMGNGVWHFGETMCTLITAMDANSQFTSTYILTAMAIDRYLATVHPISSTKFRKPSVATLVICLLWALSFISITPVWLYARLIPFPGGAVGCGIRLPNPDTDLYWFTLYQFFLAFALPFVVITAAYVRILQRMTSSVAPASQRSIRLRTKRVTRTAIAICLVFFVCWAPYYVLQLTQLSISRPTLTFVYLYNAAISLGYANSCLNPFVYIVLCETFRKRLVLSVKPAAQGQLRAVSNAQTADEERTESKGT
Scavenger receptor class B member 1, sequence (Q61009 whole entry): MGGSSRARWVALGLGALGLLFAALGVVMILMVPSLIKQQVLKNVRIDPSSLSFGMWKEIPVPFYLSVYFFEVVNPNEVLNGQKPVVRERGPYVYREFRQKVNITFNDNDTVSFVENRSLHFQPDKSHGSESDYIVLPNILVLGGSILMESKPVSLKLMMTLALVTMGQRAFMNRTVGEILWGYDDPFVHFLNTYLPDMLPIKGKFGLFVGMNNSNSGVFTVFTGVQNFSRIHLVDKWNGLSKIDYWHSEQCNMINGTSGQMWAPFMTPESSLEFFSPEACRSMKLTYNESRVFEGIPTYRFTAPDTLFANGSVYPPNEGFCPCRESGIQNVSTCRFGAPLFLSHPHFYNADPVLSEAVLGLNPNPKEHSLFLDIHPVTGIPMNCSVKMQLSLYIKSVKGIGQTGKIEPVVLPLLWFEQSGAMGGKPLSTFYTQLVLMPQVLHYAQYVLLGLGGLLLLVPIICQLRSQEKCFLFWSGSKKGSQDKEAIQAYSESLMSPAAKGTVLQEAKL

**Q.** Which results are given for `O=C(/C=C/c1ccco1)c1ccc(NC(=O)C23CC4CC(CC(C4)C2)C3)cc1`?
**A.** EC50 (Protein RecA): 55.5 µM (active); AC50 [1]: > 380 µM (inactive); IC50 [2]: 4.96 µM (active)

**Q.** With `COc1ccc(Oc2c(C)cnn(-c3ccc(C(C)C)cc3)c2=O)cc1` as the molecule, how does the IC50 [3] read?
**A.** 9.8 µM (active)

**Q.** For `CCOC(=O)N1CCN(C(=O)C2CCN(C(=O)Nc3ccccc3)CC2)CC1`, which AC50 [4] is on record?
**A.** 136 µM (active)

**Q.** Which AC50 (Trypanosoma cruzi) does the source give for `COc1ccc(C(C)NC(=O)C2CCN(CCCc3ccccc3)CC2)cc1OC` (stereo not drawn) here?
**A.** 66.3 µM (active)

**Q.** Which results are given for `O=C(CCc1ccccc1)NCC(=O)N/N=C/c1ccc(O)cc1O`?
**A.** EC50 [5]: > 55.7 µM (not active); EC50 [6]: > 55.7 µM (not active)
